Results published in the supplement of paper PMC10290057.
Structures can show the parent of a compound that is named as a salt.

How the values were obtained:
[1] = test system: HCT116; test: efficacy (fitted maximal change in viability relative to DMSO control); higher = less cytotoxic (negative = loss of viability); details: 48 h
[2] = test system: HCT116; test: AC50 cell viability (CellTiter-Glo); higher = less potent; details: 48 h
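Wherever AC50 cell viability (CellTiter-Glo) is given: HCT116 colorectal carcinoma cells screened at five concentrations per compound, luminescent viability scaled between DMSO wells and empty wells on each plate, curves fitted per compound.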
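Wherever efficacy (fitted maximal change in viability relative to DMSO control) is given: Luminescence-based viability readout, five doses per compound, normalized against on-plate DMSO and empty-well controls, followed by dose-response curve fitting for every drug.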

Row | SMILES | efficacy [1] [%] | AC50 cell viability [2] [µM]
1 | CCCC\1=C(/CNC(=O)C2=CC(=CC3=C2C=N[N]3C(C)C)C4=CC(=NC=C4)N5CCN(C)CC5)C(=O)NC(=C1)\C [GSK-343] | -101 | 23.5
2 | COc1cc(C(=O)N2CC[C@@H](O)[C@@H](N)C2)cc2nc(-c3cc4ccccc4n3CC3CC3)n(C)c12 [GSK-484] | -94.1 | 23.5
3 | Cc1cc(C)c(C/N=C(\O)c2cc(-c3ccc(N4CCN(C)CC4)nc3)cc3c2c(C)cn3C(C)C)c(O)n1 [GSK-503] | -103 | 23.5
4 | O=C1NC(=O)/C(=C/c2ccc3nccc(-c4ccncc4)c3c2)S1 [GSK-615] | -82.3 | 0.934
5 | CC(C)(C)OC(=O)CN(Cc1ccc(Cl)cc1)Cc1ccc([N+](=O)[O-])s1 [GSK-4112] | -40.6 | 20.9
6 | COc1ccccc1C(=O)Nc1cc2c(cc1N1CCNC[C@H]1C)n(C)c(=O)n2C [GSK-6853] | -63.8 | 16.6
7 | CCOC(=O)CCNc1cc(N2CCc3ccccc3CC2)nc(-c2ccccn2)n1 [GSK-J4] | -90.6 | 2.95
8 | COc1ccc(COc2ccc(Cc3cnc(N)nc3N)cc2OC)cc1 [GW-2580] | -96.7 | 14.8
9 | Cc1ccc(C(=O)Nc2ccc(CN3CCN(C)CC3)c(C(F)(F)F)c2)cc1C#Cc1cnc2[nH]ncc2c1 [GZD-824] | -121 | 0.934
10 | C[C@]\12CC[C@H](O)CC1=C/CC3C2CC[C@@]\4(C)C3C\C=C4[N]5C=NC6=C5C=CC=C6 (some centres undefined) [Galeterone] | -43.8 | 5.9
11 | Cc1cc(Nc2cc(CN3CCOCC3)c3nc(C)c(Cc4ccc(Cl)cc4F)n3n2)[nH]n1 [Gandotinib] | -110 | 5.9
12 | CC(C)C1=C(O)C=C(O)C(=C1)C/2=N/NC(=O)N2C3=CC4=C(C=C3)[N](C)C=C4 [Ganetespib (STA-9090)] | -62.3 | 0.0742
13 | CCNCc1nc2c(N)nc3ccccc3c2n1CC(C)(C)O [Gardiquimod] | -62 | 16.6
14 | CN(C)C1CCN(C(=O)c2ccc(NC(=O)Nc3ccc(-c4nc(N5CCOCC5)nc(N5CCOCC5)n4)cc3)cc2)CC1 [Gedatolisib] | -69.6 | 0.148
15 | NC/1=N/C(=O)N(/C=C1)[C@@H]2O[C@H](CO)[C@@H](O)C2(F)F [Gemcitabine] | -71.9 | 0.0263
16 | CCc1nc(C(N)=O)c(Nc2ccc(N3CCC(N4CCN(C)CC4)CC3)c(OC)c2)nc1NC1CCOCC1 [Gilteritinib] | -65.1 | 1.66
17 | CCN(CC)Cc1ccc2cc(COC(=O)Nc3ccc(C(=O)NO)cc3)ccc2c1 [Givinostat hydrochloride] | -88.8 | 0.263
18 | COCCNCc1ccc(-c2cc3nccc(Oc4ccc(NC(=S)NC(=O)Cc5ccc(F)cc5)cc4F)c3s2)nc1 [Glesatinib] | -80.1 | 6.61
19 | Cc1cncc2cccc([S+](=O)([O-])N3CCCN(C(=O)CN)C[C@@H]3C)c12 [Glycyl-H-1152] | -35.8 | 5.9
20 | Cn1c2ccccc2c2c3c(c4c5ccccc5n(CCC#N)c4c21)CNC3=O [Go-6976] | -63 | 18.6
21 | COC1=CC=C2[N](CCCN(C)C)C=C(C2=C1)C/3=C(/C(=O)NC3=O)C4=C[NH]C5=C4C=CC=C5 [Go-6983] | -111 | 10.5

Row | SMILES | efficacy [1] [%] | AC50 cell viability [2] [µM]
22 | CN1CCN(C2CCN(C(=O)Nc3cc(Oc4ccc(NC(=O)C5(C(=O)Nc6ccc(F)cc6)CC5)c(F)c4)ccn3)CC2)CC1 [Golvatinib] | -93.6 | 14.8
23 | O=[S+]([O-])(NCCNC/C=C/c1ccc(Br)cc1)c1cccc2cnccc12 [H-89] | -88.2 | 18.6
24 | O=C1S/C(=C\c2ccc(OCc3cccc(B(O)O)c3)cc2)C(=O)N1Cc1ccc(F)cc1 [HA-130] | -41.3 | 18.6
25 | ONC(=O)C1=CC=C(C=C1)C/2=N/C3=CC=CC=C3OC4=C2C=CC=C4 [HDACi-01] | -85.9 | 2.95
26 | O=C(NO)c1cnc(N2C[C@H]3C[C@@H]2CN3c2cc(C(F)(F)F)ccn2)nc1 [HDACi-02] | -86.6 | 1.48
27 | CCN1CCN(Cc2ccc(NC(=O)c3ccc(C)c(/C=C/c4cnc5[nH]ccc5c4OC)c3)cc2C(F)(F)F)CC1 [HG-6-64-1] | -96.2 | 2.95
28 | COCCOC(=O)C/1=C(C)/NC/2=C(C1C3=CC=CC(=C3)O)/C(=O)CC(C2)C4=C(OC)C=CC=C4 (centres undefined) [HPI-1] | -73.6 | 14.8
29 | COc1cccc(-c2cc(F)ccc2C2Cc3nc(N)nc(C)c3C(=O)N2)n1 (centres undefined) [HSP-990] | -64.3 | 0.0525
30 | CCCCN(CCCC)CCC(O)c1cc2c(Cl)cc(Cl)cc2c2cc(C(F)(F)F)ccc12.Cl (centres undefined) [Halofantrine] | -66.6 | 20.9
31 | CC[S+](=O)([O-])Nc1ccc2c(c1)/C(=C(/Nc1ccc(CN3CCCCC3)cc1)c1ccccc1)C(=O)N2 [Hesperadin] | -90.4 | 0.235
32 | CNC1CCC(N(Cc2cccc(-c3ccncc3)c2)C(=O)c2sc3c(F)ccc(F)c3c2Cl)CC1 (centres undefined) [Hh-Ag1.5] | -115 | 13.2
33 | COc1cc(O)c2c(c1)C1OC1C[C@H](O)[C@H](O)C(=O)/C=C\C[C@H](C)OC2=O (some centres undefined) [Hypothemycin] | -72 | 3.72
34 | COc1cc2c(cc1-c1c(C)noc1C)ncc1[nH]c(=O)n([C@H](C)c3ccccn3)c12 [I-BET151] | -77.4 | 1.32
35 | CCNC(=O)C[C@@H]1\N=C(C2=CC=C(Cl)C=C2)/C3=C(C=CC(=C3)OC)[N]4C(=NN=C14)C [I-BET762] | -67 | 2.63
36 | O=C1[C@H](Cc2ccc(O)cc2)N2C(=O)CCN(C(=O)NCc3ccccc3)[C@H]2CN1Cc1cccc2ccccc12 [ICG-001] | -67.2 | 2.09
37 | N#Cc1c(C2CCNCC2)cc(-c2c(O)cccc2OCC2CC2)nc1N [IKK-2 Inhibitor VIII] | -89.2 | 10.5
38 | O=C(c1ccc(Nc2nccc(-c3cc4ccccc4s3)n2)cc1)N1CCC(N2CCCC2)CC1 [IKK-16] | -106 | 6.61
39 | O=C(Nc1cc(C(F)(F)F)cc(C(F)(F)F)c1)c1cc(Cl)ccc1O [IMD-0354] | -88.7 | 0.833
40 | CC(C)n1nc(-c2ccc3oc(N)nc3c2)c2c(N)ncnc21 [INK-128] | -100 | 0.372
41 | Nc1ccc(C(=O)c2cc3c(ccc4ccccc43)[nH]2)cc1 [IPFK2] | -102 | 4.81
42 | CC(NC1=NC=NC2=C1[NH]C=N2)\C3=C\C4=C(C(=CC=C4)Cl)C(=O)N3C5=CC=CC=C5 (centres undefined) [IPI-145] | -58.5 | 14.8
